Results on 16 molecules are retold here after PubChem BioAssay (NCI).

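Assay format: 96-well plates, 48-hour exposure. TGI denotes the concentration required for complete inhibition of growth.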

Among the test systems are NCI-H23 lung; SN12C renal; UACC-257 melanoma; HL-60(TB) leukemia; UACC-62 melanoma; SNB-19 CNS; NCI-H460 lung; HCT-15 colon; UO-31 renal; BT-549 breast.
Common to all, as to assay: inhibition of tumour cell growth, NCI panel, 48 h

With `CC1=NN(C(=O)CSc2nc3ccc(I)cc3c(=O)n2Cc2ccccc2)C(=O)C1`, the TGI with NCI-H23 lung is 43.1 µM; in the assay on SN12C renal, more than 100 µM; in the assay on UACC-257 melanoma it was 85.4 µM; in the assay on HL-60(TB) leukemia, more than 100 µM; in the assay on UACC-62 melanoma, more than 100 µM; in the assay with SNB-19 CNS it was more than 100 µM. Moreover, the values for the TGI with NCI-H460 lung and with HCT-15 colon were more than 100 µM and 52.4 µM, respectively.
`COc1ccc2c(c1)CCN1CCc3cc(OC)c(OC)cc3CC21` (stereo not given): the TGI was more than 100 µM with NCI-H23 lung; more than 100 µM in the assay on SN12C renal; more than 100 µM in the assay with UO-31 renal; more than 100 µM in the assay with UACC-257 melanoma; more than 100 µM with UACC-62 melanoma; 55.6 µM in the assay on BT-549 breast. In addition, the TGI with SNB-19 CNS and in the assay on HCT-15 colon was more than 100 µM throughout.
For the molecule `COc1ccc(N=C2C(=Nc3ccc(OC)cc3)N(c3ccccc3)C(=S)N2N=C=C2Sc3ccccc3N2C)cc1`, the TGI in the assay with NCI-H23 lung, in the assay on SN12C renal, in the assay with UO-31 renal, with UACC-257 melanoma, in the assay on UACC-62 melanoma and with BT-549 breast was more than 100 µM each time. The TGI in the assay on SNB-19 CNS, with NCI-H460 lung and in the assay with HCT-15 colon was more than 100 µM in each case.
With `CCCc1ccc(NCc2cc(OC)c(OC)c(OC)c2)cc1`, the TGI with NCI-H23 lung was 69.2 µM; in the assay on SN12C renal it was 53.2 µM; with UO-31 renal it was 56.6 µM; with UACC-257 melanoma, 74.7 µM; in the assay on UACC-62 melanoma, more than 100 µM; with SNB-19 CNS, more than 100 µM. Further, the TGI was more than 100 µM with NCI-H460 lung and 32.1 µM with HCT-15 colon.
Take `O=C(O)CNC(=O)c1c2ccccc2nc2ccccc12`: the TGI in the assay on NCI-H23 lung, in the assay with SN12C renal, in the assay with UO-31 renal, in the assay on UACC-257 melanoma, in the assay on UACC-62 melanoma and in the assay on BT-549 breast was more than 100 µM in each case. For the same molecule, the TGI with SNB-19 CNS, in the assay on NCI-H460 lung and with HCT-15 colon was more than 100 µM throughout.
Consider `O=c1onc2c3ccccc3ncn12`, for which the TGI in the assay on NCI-H23 lung, with SN12C renal, in the assay on UO-31 renal, with UACC-257 melanoma, in the assay with UACC-62 melanoma and in the assay with BT-549 breast was more than 100 µM each time. Moreover, the TGI with SNB-19 CNS and with HCT-15 colon was more than 100 µM throughout.
With `[N-]=[N+]=C1C(=O)C2CC3CC(C2)CC1C3`, the TGI with NCI-H23 lung, in the assay on SN12C renal, in the assay with UO-31 renal, with UACC-257 melanoma, in the assay on HL-60(TB) leukemia and in the assay on UACC-62 melanoma was more than 100 µM throughout. Besides, the TGI with SNB-19 CNS, in the assay with NCI-H460 lung and in the assay on HCT-15 colon was more than 100 µM in each case.
With `COc1cccc(NC(=O)C(C#N)=C(SC)SC)c1`, the TGI with SN12C renal, in the assay with UACC-257 melanoma, in the assay on UACC-62 melanoma, in the assay with BT-549 breast, with SNB-19 CNS and in the assay on NCI-H460 lung was more than 100 µM each time. Also, the TGI in the assay on HCT-15 colon was more than 100 µM.
For `O[C@H]1[C@H](O)[C@@H](O)[C@@]2(O)C[C@@H](O)[C@@H]1N2`, the TGI in the assay on NCI-H23 lung, in the assay with SN12C renal, in the assay on UO-31 renal, in the assay on UACC-257 melanoma, in the assay with HL-60(TB) leukemia and in the assay with UACC-62 melanoma was more than 100 µM each time. The TGI in the assay on SNB-19 CNS, in the assay with NCI-H460 lung and in the assay on HCT-15 colon was more than 100 µM throughout.
For `COc1cc([C@@H]2c3cc(O)c(OC)cc3C=C(C(N)=O)[C@H]2C(N)=O)ccc1O`, the TGI in the assay with NCI-H23 lung, in the assay with SN12C renal, in the assay on UO-31 renal, in the assay with UACC-257 melanoma, in the assay with HL-60(TB) leukemia and with SNB-19 CNS was more than 100 µM in each case. Besides, the TGI with NCI-H460 lung and with HCT-15 colon was more than 100 µM in each case.
Regarding `COc1ccc(/C=C2\CN(C)C/C(=C\c3ccc(OC)c(OC)c3OC)C2=O)c(OC)c1OC`, the TGI was 0.449 µM in the assay with SN12C renal; 0.571 µM with UACC-257 melanoma; 0.044 µM in the assay on HL-60(TB) leukemia; 0.548 µM with UACC-62 melanoma; 1.2 µM with SNB-19 CNS; 0.435 µM in the assay with NCI-H460 lung.
Take `O=C(CSC1=NCCN1)Nc1ccccc1`: the TGI with NCI-H23 lung was more than 100 µM; with SN12C renal, 41.1 µM; in the assay on UO-31 renal, more than 100 µM; with UACC-257 melanoma, 40.2 µM; in the assay on UACC-62 melanoma, 52.4 µM; in the assay with BT-549 breast, 59.5 µM. Besides, the TGI with SNB-19 CNS, with NCI-H460 lung and with HCT-15 colon was more than 100 µM throughout.
Take `COc1cc(/C=C(/C#N)C(N)=O)ccc1O`: the TGI in the assay with NCI-H23 lung, with SN12C renal, with UO-31 renal, with UACC-257 melanoma, in the assay with HL-60(TB) leukemia and with UACC-62 melanoma was more than 100 µM throughout. Besides, the TGI in the assay on SNB-19 CNS, with NCI-H460 lung and in the assay with HCT-15 colon was more than 100 µM in each case.
As for `COC(=O)C1=C(C)N2[C@H](C(=O)O)CO[C@@]2(C)[C@H](C(=O)OC)[C@H]1c1cccc([N+](=O)[O-])c1`, the TGI in the assay with NCI-H23 lung, in the assay on SN12C renal, in the assay with UO-31 renal, in the assay with UACC-257 melanoma, with UACC-62 melanoma and in the assay with BT-549 breast was more than 100 µM each time. Also, the TGI in the assay with SNB-19 CNS, in the assay with NCI-H460 lung and in the assay with HCT-15 colon was more than 100 µM each time.
For `CC(NC(C)(C)C)C(=O)c1cccc(Cl)c1` (stereo not given), the TGI in the assay with NCI-H23 lung, with SN12C renal, with UACC-257 melanoma, with UACC-62 melanoma and in the assay with NCI-H460 lung was more than 100 µM in each case.
`COc1ccc(-n2cnc3c(NC(CCSC)C(=O)O)ncnc32)cc1` (stereo not given): the TGI with NCI-H23 lung, in the assay on SN12C renal, with UO-31 renal, in the assay with UACC-257 melanoma, in the assay with UACC-62 melanoma and in the assay on BT-549 breast was more than 100 µM throughout. Besides, the TGI in the assay with SNB-19 CNS, in the assay with NCI-H460 lung and with HCT-15 colon was more than 100 µM throughout.
